Experimental data as given in ChEMBL document CHEMBL6109133, “Towards P2X4 Positron Emission Tomography Tracing” (J Med Chem, 2025).

How the values were obtained:
P2X purinoceptor 4 = biological target: T1, P2X purinoceptor 4 (Homo sapiens, UniProt Q99571); test: Antagonist activity at human P2X4 receptor
T1 sequence (Q99571 whole entry): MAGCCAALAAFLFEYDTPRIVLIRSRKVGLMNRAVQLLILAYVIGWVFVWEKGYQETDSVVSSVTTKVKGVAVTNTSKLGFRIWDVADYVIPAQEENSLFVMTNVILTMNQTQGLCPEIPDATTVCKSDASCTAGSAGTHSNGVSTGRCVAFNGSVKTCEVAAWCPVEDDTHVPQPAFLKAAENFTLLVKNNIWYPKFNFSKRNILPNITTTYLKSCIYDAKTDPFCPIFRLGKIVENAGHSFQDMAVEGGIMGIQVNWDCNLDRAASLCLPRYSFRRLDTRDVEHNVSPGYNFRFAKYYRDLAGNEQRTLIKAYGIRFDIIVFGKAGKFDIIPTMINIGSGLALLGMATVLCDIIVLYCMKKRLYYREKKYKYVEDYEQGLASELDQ

[1] = Plasma protein binding in mouse; format: ADME, cell-free; conditions: read-out: PPB

Row | SMILES | IC50 (P2X purinoceptor 4) | fraction unbound [1]
1 | Cc1cc(F)ccc1S(=O)(=O)Nc1ccc(N2C(=O)CC(=O)Nc3c2ccc2ccccc32)cc1 | 0.064 µM | < 0.02
2 | Cc1cc(F)ccc1CS(=O)(=O)Nc1ccc(N2C(=O)CC(=O)Nc3c2ccc2ccccc32)cc1 | 0.008 µM | < 0.02
